T1: WT ERα protein (Homo sapiens, UniProt P03372)
T1 sequence (P03372 1-595): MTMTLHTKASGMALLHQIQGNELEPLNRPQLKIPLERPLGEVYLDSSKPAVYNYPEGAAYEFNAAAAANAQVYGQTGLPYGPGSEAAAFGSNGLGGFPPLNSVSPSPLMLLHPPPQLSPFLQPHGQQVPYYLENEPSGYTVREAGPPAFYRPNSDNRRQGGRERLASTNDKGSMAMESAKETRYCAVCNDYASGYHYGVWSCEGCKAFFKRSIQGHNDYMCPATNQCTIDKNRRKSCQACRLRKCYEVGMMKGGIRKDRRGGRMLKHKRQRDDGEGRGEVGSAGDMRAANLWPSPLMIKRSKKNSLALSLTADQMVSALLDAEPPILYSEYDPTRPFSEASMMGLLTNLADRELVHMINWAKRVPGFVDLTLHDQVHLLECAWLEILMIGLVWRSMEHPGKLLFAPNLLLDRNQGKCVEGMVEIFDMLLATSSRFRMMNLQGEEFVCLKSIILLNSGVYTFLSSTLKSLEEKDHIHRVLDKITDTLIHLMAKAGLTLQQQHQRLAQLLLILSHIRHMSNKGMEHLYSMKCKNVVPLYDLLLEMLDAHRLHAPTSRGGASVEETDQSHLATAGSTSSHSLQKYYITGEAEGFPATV

T2: ESR1-e6>PCDH11X fusion protein, C-terminal HA-tagged (UniProt P03372 1-365; Q9BZA7 1013-1347, limits assumed)
T2 construct: Stably expressed in T47D cells by lentiviral transduction; not shown: C-terminal HA tag
T2 sequence (looked up): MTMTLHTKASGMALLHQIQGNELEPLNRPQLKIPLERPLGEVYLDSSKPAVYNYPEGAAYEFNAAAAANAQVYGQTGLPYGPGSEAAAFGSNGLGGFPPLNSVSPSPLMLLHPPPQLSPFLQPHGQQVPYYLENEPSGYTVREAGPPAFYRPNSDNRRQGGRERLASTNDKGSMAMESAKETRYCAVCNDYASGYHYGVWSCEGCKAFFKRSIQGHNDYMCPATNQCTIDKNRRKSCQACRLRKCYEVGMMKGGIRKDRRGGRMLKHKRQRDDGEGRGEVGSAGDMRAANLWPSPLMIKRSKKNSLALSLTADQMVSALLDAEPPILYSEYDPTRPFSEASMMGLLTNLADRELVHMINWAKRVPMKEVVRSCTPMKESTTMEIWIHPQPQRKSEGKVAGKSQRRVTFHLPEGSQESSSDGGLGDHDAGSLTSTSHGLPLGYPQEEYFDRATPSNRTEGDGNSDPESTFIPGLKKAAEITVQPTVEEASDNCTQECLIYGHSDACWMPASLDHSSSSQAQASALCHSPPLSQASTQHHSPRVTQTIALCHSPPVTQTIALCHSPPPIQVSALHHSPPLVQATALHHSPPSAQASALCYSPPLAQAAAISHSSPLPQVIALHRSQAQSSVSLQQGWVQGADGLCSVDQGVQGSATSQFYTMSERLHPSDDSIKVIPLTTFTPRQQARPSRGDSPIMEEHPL

T3: ESR1-e6>SOX9 fusion protein, HA-tagged (UniProt P03372 1-365; P48436 229-509, limits assumed)
T3 construct: Stably expressed in T47D cells by lentiviral transduction; not shown: HA tag (constructed in a similar fashion to the C-terminal HA-tagged constructs)
T3 sequence (looked up): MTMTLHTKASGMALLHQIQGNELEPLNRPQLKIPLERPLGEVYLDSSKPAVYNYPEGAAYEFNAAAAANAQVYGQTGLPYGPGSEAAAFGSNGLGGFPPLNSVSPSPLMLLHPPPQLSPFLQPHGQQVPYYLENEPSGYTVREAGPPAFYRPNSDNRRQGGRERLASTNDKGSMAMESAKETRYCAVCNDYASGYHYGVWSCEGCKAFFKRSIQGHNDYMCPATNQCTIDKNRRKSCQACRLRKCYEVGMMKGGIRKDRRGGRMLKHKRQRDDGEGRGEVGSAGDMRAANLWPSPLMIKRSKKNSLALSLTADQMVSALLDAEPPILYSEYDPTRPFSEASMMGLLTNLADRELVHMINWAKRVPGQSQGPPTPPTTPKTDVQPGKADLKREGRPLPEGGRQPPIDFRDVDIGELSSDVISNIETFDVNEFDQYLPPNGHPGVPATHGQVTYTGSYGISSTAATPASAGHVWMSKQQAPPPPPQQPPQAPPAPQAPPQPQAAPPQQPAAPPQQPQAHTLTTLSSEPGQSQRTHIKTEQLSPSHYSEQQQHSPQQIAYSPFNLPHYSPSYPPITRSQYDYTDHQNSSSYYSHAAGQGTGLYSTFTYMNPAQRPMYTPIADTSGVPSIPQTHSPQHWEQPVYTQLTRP

B1: endogenously expressed ERα (wild-type estrogen receptor alpha, encoded by ESR1) (receptor, UniProt P03372 1-595, looked up)
chain: T1 sequence (P03372 1-595)
notes: also called WT ERα; endogenous ERα

Experiments:
T47D cells = test: Cell growth, alamarBlue assay; format: cell-based; details: 100 nM fulvestrant, 7-10 days
Procedure: Cell growth, motility and invasion assays—Cell growth assays of different ESR1 fusion protein expressing breast cancer cells that were first hormone-deprived and then subsequently treated either with 100 nM fulvestrant in the presence or absence of 10 nM E2 for 7-10 days were performed in 96-well plates using an alamarBlue™ assay as described (7). Cell growth reading values were normalized to that of control YFP cells, −E2.
(§1) To characterize each chimeric ESR1 fusion protein, HA-tagged cDNA constructs were expressed in two ER+ breast cancer cell lines (T47D and MCF7) by lentiviral transduction. Stable cell lines expressing yellow fluorescent protein (YFP) were generated as negative controls. Truncated ESR1 (ESR1-e6 protein) and wild-type ESR1 (ESR1-WT protein) were also stably expressed to provide over-expression controls (FIGS. 2A and 2D). When cells were treated with 100 nM fulvestrant, a selective ERα degrader that inhibits endogenous ERα (21), the level of ESR1 fusion protein was predictably unaffected. In comparison, the WT ERα protein was reliably degraded, providing an endogenous control for fulvestrant activity (FIGS. 2A and 2D). […] Cell growth was measured using an alamarBlue assay. […]

WT ERα protein = molecular target: T1, WT ERα protein; test: Immunoblotting of endogenous WT ERα after fulvestrant treatment; format: cell-based; details: 100 nM fulvestrant; hormone-deprived stable T47D and MCF7 cells
Procedure: Immunoblotting and immunoprecipitation—Cells were harvested and whole cell lysates were prepared in RIPA lysis buffer as described (7) or in MIB lysis buffer (10) supplemented with 1× protease inhibitors and 1× phosphatase inhibitors (Roche) by sonication for 2 minutes. […] Protein concentration determination and SDS-PAGE (20 g protein per lane) were performed as described (7). Immunoblotting of nitrocellulose membranes was performed as described (7). Primary and HRP-conjugated secondary antibodies employed are listed in the Supplementary information.

ESR1 fusion protein = test: Immunoblotting of ESR1 fusion proteins after fulvestrant treatment; format: cell-based; details: 100 nM fulvestrant; hormone-deprived stable T47D and MCF7 cells
Procedure: (§2) Immunoblotting and immunoprecipitation—Cells were harvested and whole cell lysates were prepared in RIPA lysis buffer as described (7) or in MIB lysis buffer (10) supplemented with 1× protease inhibitors and 1× phosphatase inhibitors (Roche) by sonication for 2 minutes. To make ER+ PDX tumor lysates, frozen PDX tumors were cryopulverized with a Covaris CP02 Pulverizer and then protein was extracted in MIB lysis buffer with sonication. Protein concentration determination and SDS-PAGE ([…] protein per lane) were performed as described (7). Immunoblotting of nitrocellulose membranes was performed as described (7). Primary and HRP-conjugated secondary antibodies employed are listed in the Supplementary information.
as §1, with “unaffected.” for “unaffected. In comparison, the WT ERα protein was reliably degraded, providing an endogenous control for fulvestrant activity (FIGS. 2A and 2D).”

[1] = tested on: T47D cells expressing active ESR1 fusion proteins; test: Expression of estrogen response and EMT-related genes (RT-qPCR, immunoblotting); format: cell-based; details: 100 nM fulvestrant; E2-deprived T47D cells
Procedure: as §2
Reverse transcription-quantitative PCR (RT-qPCR)—RNA was isolated from hormone-deprived stable T47D cells as above with concentration determined using a NanoDrop spectrophotometer. […]
To define the transcriptional profile driven by active ESR1 fusion proteins, RNA-Seq was performed on T47D cells expressing these ESR1 fusion cDNAs as well as control (YFP, ESR1-e6, and ESR1-WT) cells in the presence and absence of E2. […] The expression of three canonical estrogen response genes in stably transfected T47D cells were validated using reverse transcription-quantitative PCR (RT-qPCR). […]

[2] = molecular target: T2, ESR1-e6>PCDH11X fusion protein, …; test: co-immunoprecipitation: anti-HA IP from hormone-deprived T47D cell lysates with or without 100 nM E2, blot with C-terminal ERα antibody
[3] = molecular target: T3, ESR1-e6>SOX9 fusion protein, HA-tagged; test: as above
[4] = molecular target: T4, ESR1-e6>YAP1 fusion protein, C-terminal HA-tagged (UniProt P03372 1-365; P46937 230-504, limits assumed); test: as above
T4 construct: Stably expressed in T47D cells by lentiviral transduction; also called ESR1-YAP1; not shown: C-terminal HA tag

Molecule | E2-independent growth of T47D cells expressing ESR1-e6>YAP1, >PCDH11X, >SOX9, >ARNT2-e18 (T47D cells) | level of WT ERα protein (WT ERα protein) | level of ESR1 fusion protein (ESR1 fusion protein) | expression of estrogen response and EMT-related genes induced by active ESR1 fusion proteins [1] | binding result [2] | binding result [3] | binding result [4]
C[C@]12CC[C@@H]3c4ccc(O)cc4C[C@@H](CCCCCCCCC[S+]([O-])CCCC(F)(F)C(F)(F)F)[C@H]3[C@@H]1CC[C@@H]2O (stereo partly shown) [fulvestrant] | uniformly resistant to fulvestrant | degraded | unaffected | unaffected | – | – | –
B1 | – | – | – | – | no binding | no binding | no binding

Reference: patent publication US20250154597A1, “TRANSCRIPTIONAL REPROGRAMMING DIFFERENTIATES ACTIVE FROM INACTIVE ESR1 FUSIONS IN ENDOCRINE THERAPY-REFRACTORY METASTATIC BREAST CANCER” (Baylor College of Medicine, priority 2021, published 2025)
